# Test results: PMC8958511, “Development of Sulfamoylated 4-(1-Phenyl-1H-1,2,3-triazol-4-yl)phenol Derivatives as Potent Steroid Sulfatase Inhibitors for Efficient Treatment of Breast Cancer” (Journal of Medicinal Chemistry, 2022)
# Where two headings read alike, the source gives them in different places.
# Tests used:
# [1] = molecular target: T1, STS isolated from the human placenta (Homo sapiens, UniProt P08842); experiment: radioisotope enzymatic assay with STS isolated from human placenta and [3H]E1S; type: biochemical; settings: for remaining activity at 0.5 µM: read-out: residual STS activity [%]
# T1 construct: radioisotope enzymatic assay using STS isolated from the human placenta; from tissue; host or cells: human placenta
# T1 sequence (P08842 22-583): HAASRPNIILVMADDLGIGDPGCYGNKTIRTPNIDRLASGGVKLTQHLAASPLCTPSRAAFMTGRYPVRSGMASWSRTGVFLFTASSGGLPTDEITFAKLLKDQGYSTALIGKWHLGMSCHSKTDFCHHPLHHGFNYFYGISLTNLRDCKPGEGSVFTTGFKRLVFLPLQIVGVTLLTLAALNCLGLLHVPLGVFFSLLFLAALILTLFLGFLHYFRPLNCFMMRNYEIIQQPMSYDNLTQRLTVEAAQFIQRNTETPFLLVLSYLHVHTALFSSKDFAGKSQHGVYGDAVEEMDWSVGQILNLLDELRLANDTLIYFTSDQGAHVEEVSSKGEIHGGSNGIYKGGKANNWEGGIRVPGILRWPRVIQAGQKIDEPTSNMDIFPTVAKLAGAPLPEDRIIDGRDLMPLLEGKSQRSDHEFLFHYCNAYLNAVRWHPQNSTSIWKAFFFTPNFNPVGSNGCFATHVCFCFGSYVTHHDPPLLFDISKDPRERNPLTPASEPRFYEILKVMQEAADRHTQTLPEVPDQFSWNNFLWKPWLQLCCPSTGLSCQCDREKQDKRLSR
# Description: The inhibitory potency of the synthesized compounds was examined in two ways, including an enzymatic assay and the radioisotope cellular test. The enzymatic assay was performed using the STS enzyme isolated from human placenta and using radiolabeled [^3H]E1S as a substrate.
# The total volume of the reaction mixture was 100 μL. […] After incubation, the reaction mixture (90 μL) was collected from each well, and the product formed by STS hydrolysis was extracted with toluene (0.5 mL). STS activity was measured using a MicroBeta radioluminometer (PerkinElmer). Enzymatic assays were carried out in triplicate.
# [2] = molecular target: T2, STS in MCF-7 cells (Homo sapiens, UniProt P08842); experiment: radioisotope cellular assay with [3H]E1S in MCF-7 cells; type: cell-based; settings: for remaining activity at 0.001 µM / remaining activity at 0.01 µM / remaining activity at 0.1 µM: MCF7, 20 h; for remaining activity at 0.001 µM: read-out: residual STS activity [%] 1 nM; for remaining activity at 0.01 µM: read-out: residual STS activity [%] 10 nM; for remaining activity at 0.1 µM: read-out: residual STS activity [%] 100 nM; for IC50: MCF-7 cells, substrate [3H]E1S, 3 nM
# T2 construct: The radioisotope cellular assay was performed using the MCF-7 cell line; endogenous in cells; host or cells: MCF-7
# T2 sequence (P08842 22-583): T1 sequence (P08842 22-583)
# Description: All compounds were initially tested for their in cell inhibitory action at a 100 nM concentration.
# The inhibitory potency of the synthesized compounds was examined in two ways, including an enzymatic assay and the radioisotope cellular test. […] The radioisotope cellular assay was performed using the MCF-7 cell line in the presence of radiolabeled [^3H]E1S.
# The evaluation of the inhibitory effect of each compound with breast cancer cells was performed using a previously described method (27) with some modifications. MCF-7 cells were maintained in Dulbecco’s modified Eagle medium supplemented with 10% fetal bovine serum and cultured in the above medium until 80% confluence. […] After incubation, the medium (0.45 mL) was collected from each well, and the product formed by STS hydrolysis was extracted with toluene (4 mL). STS activity was measured using a MicroBeta radioluminometer (PerkinElmer). Assays with MCF-7 cells were carried out in triplicate.
# [3] = type: in vivo; settings: Table S1, MTD study, 50 mg/kg
# Description: The mice were thus weighed, and their general health was observed. […] At the end of the study, the mice were sacrificed by dislocation of the cervical vertebrae, and the internal organs were examined macroscopically.
# The mice were weighed, and their general health was observed. […] At the end of the MTD study, the autopsy was performed, and the internal organs (liver, kidney, and spleen) were weighed and macroscopically assessed.
# [4] = test system: 67NR mouse mammary tumor cells; experiment: antitumor activity in 67NR orthotopic mouse breast carcinoma model; type: in vivo, BALB/c mice; settings: for tumor growth inhibition (TGI): 5 days a week, 67NR tumor, N = 9, vs control group
# Description: The tumor volume (TV) and body weight were measured three times a week. Results for individual groups are reported in Figure S5, Supporting Information. Based on TV data, the tumor growth inhibition (TGI) was calculated for groups that received compounds and compared to that of the control group. […] The body weight of the treated animals was monitored during the study, and the body weight change (BWC) index was calculated (Figure 4). […] Body weight loss was observed between D2 and D11 and reached 4.5% at most.
# The growth of tumors has been observed.
# [5] = molecular target: T3, STS activity in murine livers and tumors (Mus musculus, UniProt P50427); experiment: determination of STS activity in murine livers and tumors of treated mice; settings: for Residual STS activity [%] Liver: liver tissue of mice treated per os at 50 mg/kg b.w.; for Residual STS activity [%] Tumor: tumor tissue of mice treated per os at 50 mg/kg b.w.
# T3 sequence (P50427 23-624): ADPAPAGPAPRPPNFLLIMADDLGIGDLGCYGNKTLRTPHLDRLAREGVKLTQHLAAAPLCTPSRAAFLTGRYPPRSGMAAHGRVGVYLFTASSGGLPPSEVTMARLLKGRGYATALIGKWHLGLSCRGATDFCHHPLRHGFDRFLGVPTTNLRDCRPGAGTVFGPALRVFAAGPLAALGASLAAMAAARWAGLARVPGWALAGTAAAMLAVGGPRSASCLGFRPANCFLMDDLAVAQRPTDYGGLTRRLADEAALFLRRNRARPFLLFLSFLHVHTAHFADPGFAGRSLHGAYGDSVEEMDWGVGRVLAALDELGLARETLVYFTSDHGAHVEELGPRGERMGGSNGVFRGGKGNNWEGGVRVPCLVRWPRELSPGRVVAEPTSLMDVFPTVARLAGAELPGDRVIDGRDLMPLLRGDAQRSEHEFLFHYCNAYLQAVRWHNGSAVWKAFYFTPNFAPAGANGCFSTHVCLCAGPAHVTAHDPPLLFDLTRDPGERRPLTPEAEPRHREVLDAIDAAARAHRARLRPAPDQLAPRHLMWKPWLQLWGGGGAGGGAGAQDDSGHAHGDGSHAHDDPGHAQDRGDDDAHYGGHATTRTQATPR
# Description: Then, the samples were subjected to sonication in five cycles of 10 s each and centrifuged for 10 min at 14 000g to pellet the tissue debris. Total protein concentrations were determined in the obtained lysates using the Bradford method, and 100 μg of the total protein was used for each reaction as a source of STS activity. […] E1S (4 × 10^4 Bq, 3 nM) and 20 mM Tris-HCl, pH 7.4. The volume of the reaction mixtures was adjusted to 100 μL with water. After incubation, 60 μL of each reaction mixture was collected, and the product formed by STS hydrolysis was extracted with toluene (0.5 mL). STS activity was measured using a MicroBeta radioluminometer (PerkinElmer). Assays were carried out in triplicate.
# [6] = blood morphology, blood biochemistry and organ weights of mice with 67NR tumor; settings: for spleen weight: 50 mg/kg b.w. per os; for spleen weight / ALT / AST / creatinine / urea: mice with 67NR tumor; for HCT / HGB / MCH / MCHC / MCV / MPV / PCT / PDW / PLT / RBC / RDW: Table S2, mice with 67NR tumor, 50 mg/kg; for ALT / AST / creatinine / urea: Table S3, plasma, 50 mg/kg per os, N=9
# Description: At the end of the study, the autopsy of the animals was performed: blood was collected for further analyses of the morphology (Table S2, Supporting Information) and biochemistry (Table S3 and Figure S6, Supporting Information) and for the determination of the plasma estradiol level using the ELISA method.
# Mice were injected orthotopically (in the mammary gland fat pad) with 67NR mouse mammary tumor cells derived from in vitro culture (1.5 × 10^5 cells/0.05 mL Hanks fluid/mouse). The growth of tumors has been observed. […] Animals were observed during the next 17 days and euthanized. During observation, body weight and tumor growth were monitored three times a week. The volume of the tumors was calculated according to the following formula: TV = a^2·b/2 [mm^3], (where: a—width and b—length of the tumor). Blood, tumor tissue, and liver were harvested during autopsy for further analyses. Blood aliquots (about 500 μL) were collected in EDTA containing vials for morphology analysis (Mythic 18 analyzer, Orphee), and then, the plasma was collected (centrifuged at 2500g for 15 min at 4 °C within 1 h after collection) for biochemical parameter analysis (Cobas c111, Roche).
# [7] = 50 mg/kg b.w. per os, nine mice/group
Structure (SMILES),remaining activity at 0.5 µM [1],remaining activity at 0.001 µM [2],remaining activity at 0.01 µM [2],remaining activity at 0.1 µM [2],IC50 [2],GRAN [3],HCT [3],HGB [3],LIMF [3],MCH [3],MCHC [3],MCV [3],MON [3],PLT [3],RBC [3],RDW [3],WBC [3],"mice responded to the treatment [4, 7]","mice with tumor volume reduced by approx. 50% compared to the TV control [4, 7]",Residual STS activity [%] Liver [5],other results
"NS(=O)(=O)Oc1ccc(-c2cn(-c3cccc(Cl)c3)nn2)cc1 [4a, 4-(1-(3-Chlorophenyl)-1H-1,2,3-triazol-4-yl)phenyl Sulfamate]",19.5 ± 0.97%,38.2%,28.1 ± 1.12%,2.4 ± 0.07%,1.9 ± 0.06 nM,"13,2±3,6%","41±0,2%","15,1±0,2 g/dL","83,5±4,1%","17,3±0,3 pg","36,9±0,5 g/dL","46,8±0,2 fL","3,3±0,6%",518±49 10x3/uL,"8,8±0,1 10x6/uL","17,9±0,6%","4,5±0,3 10x3/uL",7 mice,5 mice,"12,1%","body weight of treated tumor-bearing mice (observation) ([4]; 50 mg/kg b.w. per os): A body weight increase was observed; tumor growth inhibition (TGI) ([4]; 50 mg/kg b.w. per os): 47%; mice with much larger tumor than the mean control volume [4, 7]: 1 mice; Residual STS activity [%] Tumor [5]: 5,8%; spleen weight [6]: Significantly smaller spleens weights; HCT [6]: 35,9±3,2%; HGB [6]: 13,5±1,1 g/dL; MCH [6]: 17,7±0,5 pg; MCHC [6]: 37,6±0,7 g/dL; MCV [6]: 47,1±1 fL; MPV [6]: 4,9±0,1 fL; PCT [6]: 0,250±0,03%; PDW [6]: 24,9±3 fL; PLT [6]: 503,3±59,8 x103/uL; RBC [6]: 7,6±0,8 x106/uL; RDW [6]: 18±0,5%; ALT [6]: 27,3±3,9 U/L; AST [6]: 91,7±15,4 U/L; creatinine [6]: 5,75±1,52 umol/L; urea [6]: 7,92±0,66 mmol/L"
"NS(=O)(=O)Oc1ccc(-c2cn(-c3cc(Cl)cc(Cl)c3)nn2)cc1 [4b, 4-(1-(3,5-Dichlorophenyl)-1H-1,2,3-triazol-4-yl)phenyl Sulfamate]",13.3%,63.7 ± 2.55%,17.8 ± 0.62%,2 ± 0.1%,1.71 ± 0.05 nM,"11,0±1,7%","44,1±1,3%","16,4±0,6 g/dL","85,7±1,7%","17,4±0,01 pg","37,1±0,4 g/dL","46,9±0,5 fL","3,3±0,5%",533±34 10x3/uL,"9,4±0,4 10x6/uL","17,5±0,6%","5,1±1,6 10x3/uL",7 mice,5 mice,"14,5%","residual STS activity [%] ([1]; 0.5 μM inhibitor concentration, substrate [3H]E1S, 3 nM, triplicate): 13.32 ± 0.67%; side effects and toxicity ([4]; 50 mg/kg): no evidence of side effects and toxicity; body weight of treated tumor-bearing mice (observation) ([4]; 50 mg/kg b.w. per os): A body weight increase was observed; Residual STS activity [%] Tumor [5]: 5,1%; spleen weight [6]: Significantly smaller spleens weights; HCT [6]: 36,6±2,7%; HGB [6]: 13,7±0,9 g/dL; MCH [6]: 17,6±0,5 pg; MCHC [6]: 37,6±0,6 g/dL; MCV [6]: 46,8±0,9 fL; MPV [6]: 4,9±0,2 fL; PCT [6]: 0,248±0,03%; PDW [6]: 27,1±3,2 fL; PLT [6]: 512,2±72,3 x103/uL; RBC [6]: 7,8±0,7 x106/uL; RDW [6]: 18,2±0,5%; ALT [6]: 27,1±3,8 U/L; AST [6]: 86,6±18,5 U/L; creatinine [6]: 4,53±1,48 umol/L; urea [6]: 6,94±0,69 mmol/L"
NS(=O)(=O)Oc1ccc(-c2cn(-c3cccc(F)c3)nn2)cc1 [5g],37.9 ± 1.9%,57.3 ± 3.44%,1%,1 ± 0.04%,1.69 ± 0.08 nM,"12,4±1,7%","41,1±0,5%","15,2±0,2 g/dL","84,3±2,3%","17,2±0,2 pg","36,7±0,2 g/dL","46,9±0,3 fL","3,4±0,6%",522±33 10x3/uL,"8,8±0,01 10x6/uL","17,4±0,3%","4,9±1,3 10x3/uL",8 mice,5 mice,"13,6%","tumor growth inhibition (TGI) ([4]; 50 mg/kg b.w. per os): 42%; Residual STS activity [%] Tumor [5]: 5,2%; spleen weight [6]: Significantly smaller spleens weights; HCT [6]: 35±2,4%; HGB [6]: 13,5±0,9 g/dL; MCH [6]: 18,3±0,9 pg; MCHC [6]: 38,6±0,6 g/dL; MCV [6]: 47,4±2,8 fL; MPV [6]: 5±0,1 fL; PCT [6]: 0,255±0,04%; PDW [6]: 26,9±4,8 fL; PLT [6]: 508,6±69 x103/uL; RBC [6]: 7,4±0,7 x106/uL; RDW [6]: 19,1±1,5%; AST [6]: 102,2±23,1 U/L; creatinine [6]: 6,51±1,49 umol/L; urea [6]: 8,83±1,32 mmol/L"
